Columns and labels:
CDK4/cyclin D3 = biological target: T1, CDK4/cyclin D3 (Homo sapiens, UniProt P11802); assay: In vitro biochemical kinase activity assay for CDK4/cyclin D3 (HTRF)
T1 construct: purchased Carna
Method: II. In Vitro Biochemical Kinase Activity Assay for CDK4/Cyclin D3
The inhibitory effects of the compounds of the present invention on CDK4/cyclin D3 kinase activity were determined using an HTRF assay. The experimental process was as follows: • 1. The kinase reaction was carried out in a 384-well plate. 4.9 nM CDK4/cyclin D3 (Carna), 1 mM (or 80 µM) ATP, and 0.3 µM biotin-labeled substrate protein Rb-biotin (Cisbio) were incubated at 30°C for 90 min in a buffer system composed of 50 mM MgCl2, 1 mM DTT, and basal kinase buffer (Cisbio). • 2. The detection solution (Cisbio, containing reagents that specifically recognize phosphorylated Rb and Rb-biotin proteins, respectively) was added. The plate was then sealed with a film (to protect from light and volatilization) and incubated at 25°C for 60 min. • 3. The plate was transferred to an Envision plate reader to detect FRET signals. (The 665/615 ratio was calculated by reading the emission at 665 nm and 615 nM, respectively.) • 4. The IC50 values were determined by analyzing the inhibition at varying compound concentrations using Model 205 in the XLfit software.

CDK6/cyclin D3 = biological target: T2, CDK6/cyclin D3 (Homo sapiens, UniProt Q00534); assay: In vitro biochemical kinase activity assay for CDK6/cyclin D3 (HTRF)
T2 construct: purchased Carna
Method: III. In Vitro Biochemical Kinase Activity Assay for CDK6/Cyclin D3
The inhibitory effects of the compounds of the present invention on CDK6/cyclin D3 kinase activity were determined using an HTRF assay. The experimental process was as follows: 1. The kinase reaction was carried out in a 384-well plate. 0.02 nM CDK6/cyclin D3 (Carna), 1 mM (or 100 µM) ATP, and 0.3 µM biotin-labeled substrate protein Rb-biotin (Cisbio) were incubated at 30°C for 60 min in a buffer system composed of 5 mM MgCl2, 1 mM DTT, and basal kinase buffer (Cisbio). 2. The detection solution (Cisbio, containing reagents that specifically recognize phosphorylated Rb and Rb-biotin proteins, respectively) was added. The plate was then sealed with a film (to protect from light and volatilization) and incubated at 25°C for 60 min. 3. The plate was transferred to an Envision plate reader to detect FRET signals. (The 665/615 ratio was calculated by reading the emission at 665 nm and 615 nM, respectively.) 4. The IC50 values were determined by analyzing the inhibition at varying compound concentrations using Model 205 in the XLfit software.

[1] = data marked with *: 1 mM ATP in Step 1
[2] = unmarked data: 100 µM ATP in Step 1

T1 sequence (P11802 whole entry): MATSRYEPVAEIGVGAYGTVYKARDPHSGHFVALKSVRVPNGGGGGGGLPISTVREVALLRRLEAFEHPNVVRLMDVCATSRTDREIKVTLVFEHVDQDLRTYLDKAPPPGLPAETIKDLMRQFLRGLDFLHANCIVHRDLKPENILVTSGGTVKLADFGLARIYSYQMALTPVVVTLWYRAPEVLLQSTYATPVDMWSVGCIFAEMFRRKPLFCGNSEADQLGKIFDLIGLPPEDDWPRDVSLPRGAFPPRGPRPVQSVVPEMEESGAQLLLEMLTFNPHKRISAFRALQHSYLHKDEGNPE
T1 sequence (P30281 whole entry partner): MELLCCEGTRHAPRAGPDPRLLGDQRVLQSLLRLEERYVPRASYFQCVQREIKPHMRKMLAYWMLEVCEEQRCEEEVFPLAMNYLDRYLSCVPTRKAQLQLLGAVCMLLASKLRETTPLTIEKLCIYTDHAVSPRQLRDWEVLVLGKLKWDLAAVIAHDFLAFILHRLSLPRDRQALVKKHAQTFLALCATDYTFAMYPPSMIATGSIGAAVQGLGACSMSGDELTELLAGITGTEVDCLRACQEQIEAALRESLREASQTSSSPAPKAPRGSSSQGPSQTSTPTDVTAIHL
T2 sequence (Q00534 whole entry): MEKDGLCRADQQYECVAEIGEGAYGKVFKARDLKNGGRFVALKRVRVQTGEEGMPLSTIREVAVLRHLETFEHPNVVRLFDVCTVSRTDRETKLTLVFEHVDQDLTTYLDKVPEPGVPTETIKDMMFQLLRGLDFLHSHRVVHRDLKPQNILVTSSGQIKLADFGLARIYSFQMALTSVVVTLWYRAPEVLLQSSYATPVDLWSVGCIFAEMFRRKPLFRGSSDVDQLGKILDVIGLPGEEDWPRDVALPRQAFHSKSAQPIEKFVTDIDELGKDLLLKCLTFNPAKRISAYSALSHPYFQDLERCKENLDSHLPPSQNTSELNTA
T2 sequence (P30281 whole entry partner): as the sequence (P30281 whole entry partner) above

IC50 (CDK4/cyclin D3; [1])	IC50 (CDK6/cyclin D3; [1])	IC50 (CDK4/cyclin D3; unmarked data: 80 µM ATP in Step 1)	IC50 (CDK6/cyclin D3; [2])	Compound
2.9 nM	6.53 nM			CCN1CCC(c2ccc(Nc3ncc(Cl)c(C#Cc4cnc(C(C)(C)O)n4C(C)C)n3)nc2)CC1 [Example 76, 2-(5-((5-chloro-2-((5-(1-ethylpiperidin-4-yl)pyridin-2-yl)amino)pyrimidin-4-yl)ethynyl)-1-isopropyl-1H-imidazol-2-yl)propan-2-ol]
1.62 nM	5.94 nM			CCN1CCN(Cc2ccc(Nc3cc(C#Cc4cnc(C(C)(C)O)n4C(C)C)c(Cl)cn3)nc2)CC1 [Example 77, 2-(5-((5-chloro-2-((5-((4-ethylpiperazin-1-yl)methyl)pyridin-2-yl)amino)pyridin-4-yl)ethynyl)-1-isopropyl-1H-imidazol-2-yl)propan-2-ol]
75.5 nM	393 nM			CC(C)n1c(C#Cc2nc(N[C@@H]3CCOC[C@H]3O)ncc2Cl)cnc1CN1CCC[C@@H](O)C1 [Example 78, (R)-1-((5-((5-chloro-2-(((3 S,4R)-3-hydroxytetrahydro-2H-pyran-4-yl)amino)pyrimidin-4-yl)ethynyl)-1-isopropyl-1H-imidazol-2-yl)methyl)piperidin-3-ol]
17.2 nM	179 nM			Cc1ncc(C#Cc2nc(N[C@@H]3CCOC[C@H]3O)ncc2Cl)n1C(C)C [Example 79, (3 S,4R)-4-((5-chloro-4-((1-isopropyl-2-methyl-1H-imidazol-5-yl)ethynyl)pyrimidin-2-yl)amino)tetrahydro-2H-pyran-3-ol]
2.65 nM	12 nM			CCN1CC2(C1)CN(c1ccc(Nc3ncc(Cl)c(C#Cc4cnc(C)n4C(C)C)n3)nc1)C2 [Example 80, 5-chloro-N-(5-(6-ethyl-2,6-diazaspiro[3.3]heptan-2-yl)pyridin-2-yl)-4-((1-isopropyl-2-methyl-1H-imidazol-5-yl)ethynyl)pyrimidin-2-amine]
9.86 nM	59.1 nM			CCN1CC2(C1)CN(c1ccc(Nc3ncc(F)c(C#Cc4cnc(C)n4C(C)C)n3)nc1)C2 [Example 81, N-(5-(6-ethyl-2,6-diazaspiro[3.3]heptan-2-yl)pyridin-2-yl)-5-fluoro-4-((1-isopropyl-2-methyl-1H-imidazol-5-yl)ethynyl)pyrimidin-2-amine]
3.25 nM	29.5 nM			CC(C)c1c(C#Cc2nc(Nc3ccc(N4CC5(CN(CCF)C5)C4)cn3)ncc2F)cnn1C [Example 82, 5-Fluoro-N-(5-(6-(2-fluoroethyl)-2,6-diazaspiro[3.3]heptan-2-yl)pyridin-2-yl)-4-((5-isopropyl-1-methyl-1H-pyrazol-4-yl)ethynyl)pyrimidin-2-amine]
7.44 nM	48.9 nM			CCN1CCN(Cc2ccc(Nc3ncc(Cl)c(C#Cc4cnc(C(C)(C)O)n4C(C)C)n3)nc2F)CC1 [Example 84, 2-(5-((5-chloro-2-((5-((4-ethylpiperazin-1-yl)methyl)-6-fluoropyridin-2-yl)amino)pyrimidin-4-yl)ethynyl)-1-isopropyl-1H-imidazol-2-yl)propan-2-ol]
		480 nM	1970 nM	CC(C)n1c(C#Cc2nc(N[C@@H]3CCOC[C@H]3C)ncc2Cl)cnc1C(C)(C)O [Example 86, 2-(5-((5-chloro-2-(((3 S,4R)-3-methyltetrahydro-2H-pyran-4-yl)amino)pyrimidin-4-yl)ethynyl)-1-isopropyl-1H-imidazol-2-yl)propan-2-ol]
3970 nM	9360 nM			CC(=O)N[C@@H]1COCC[C@H]1Nc1ncc(Cl)c(C#Cc2cnc(C(C)(C)O)n2C(C)C)n1 [Example 87, N-((3 S,4R)-4-((5-chloro-4-((2-(2-hydroxypropan-2-yl)-1-isopropyl-1H-imidazol-5-yl)ethynyl)pyrimidin-2-yl)amino)tetrahydro-2H-pyran-3-yl)acetamide]
12.6 nM			51.1 nM	CC(C)n1c(C#Cc2nc(N[C@@H]3CCOC[C@H]3O)ncc2Br)cnc1C(C)(C)O [Example 88, (3S,4R)-4-((5-bromo-4-((2-(2-hydroxypropan-2-yl)-1-isopropyl-1H-imidazol-5-yl)ethynyl)pyrimidin-2-yl)amino)tetrahydro-2H-pyran-3-ol]
16.2 nM	44.9 nM			CC(=O)N1CC2(C1)CN(c1ccc(Nc3ncc(F)c(C#Cc4cnn(C)c4C(C)C)n3)nc1)C2 [Example 89, 1-(6-(6-((5-fluoro-4-((5-isopropyl-1-methyl-1H-pyrazol-4-yl)ethynyl)pyrimidin-2-yl)amino)pyridin-3-yl)-2,6-diazaspiro[3.3]heptan-2-yl)ethan-1-one]
23 nM	253 nM			CC(C)n1c(C#Cc2nc(N[C@@H]3CCOC[C@H]3O)ncc2Cl)cnc1C1(O)CCCC1 [Example 90, (3 S,4R)-4-((5-chloro-4-((2-(1-hydroxycyclopentyl)-1-isopropyl-1H-imidazol-5-yl)ethynyl)pyrimidin-2-yl)amino)tetrahydro-2H-pyran-3-ol]
88.2 nM	333 nM			CC(C)n1c(C#Cc2nc(N[C@@H]3CCOC[C@H]3F)ncc2Cl)cnc1C(C)(C)O [Example 91, 2-(5-((5-chloro-2-(((3 S,4R)-3-fluorotetrahydro-2H-pyran-4-yl)amino)pyrimidin-4-yl)ethynyl)-1-isopropyl-1H-imidazol-2-yl)propan-2-ol]
99.7 nM	520 nM			COC1COCC[C@H]1Nc1ncc(Cl)c(C#Cc2cnc(C(C)(C)O)n2C(C)C)n1 (stereo partly drawn) [Example 92, 2-(5-((5-chloro-2-(((4R)-3-methoxytetrahydro-2H-pyran-4-yl)amino)pyrimidin-4-yl)ethynyl)-1-isopropyl-1H-imidazol-2-yl)propan-2-ol]
7.28 nM	33.7 nM			CC(C)c1c(C#Cc2nc(Nc3ccc(N4CC5(CN(C)C5)C4)cn3)ncc2F)cnn1C [Example 93, 5-fluoro-4-((5-isopropyl-1-methyl-1H-pyrazol-4-yl)ethynyl)-N-(5-(6-methyl-2,6-diazaspiro[3 .3]heptan-2-yl)pyridin-2-yl)pyrimidin-2-amine]
5.53 nM	17.6 nM			CC(C)n1c(C#Cc2nc(Nc3ccc(N4CCN(C)CC4=O)cn3)ncc2Cl)cnc1C(C)(C)O [Example 94, 1-(6-((5-chloro-4-((2-(2-hydroxypropan-2-yl)-1-isopropyl-1H-imidazol-5-yl)ethynyl)pyrimidin-2-yl)amino)pyridin-3-yl)-4-methylpiperazin-2-one]
117 nM	829 nM			CC(C)n1c(C#Cc2nc(N[C@@H]3CCOC[C@H]3O)ncc2F)cnc1C(C)(C)O [Example 95, (3 S,4R)-4-((5-fluoro-4-((2-(2-hydroxypropan-2-yl)-1-isopropyl-1H-imidazol-5-yl)ethynyl)pyrimidin-2-yl)amino)tetrahydro-2H-pyran-3-ol]
8.08 nM	198 nM			CC(C)n1c(C#Cc2nc(N[C@@H]3CCOC[C@H]3O)ncc2Cl)cnc1CN1CCC[C@@H](C#N)C1 [Example 98, (R)-1-((5-((5-chloro-2-(((3 S,4R)-3-hydroxytetrahydro-2H-pyran-4-yl)amino)pyrimidin-4-yl)ethynyl)-1-isopropyl-1H-imidazol-2-yl)methyl)piperidin-3-carbonitrile]
28.1 nM	190 nM			CC(C)n1c(C#Cc2nc(N[C@H]3CC[C@H](NS(C)(=O)=O)CC3)ncc2Cl)cnc1C(C)(C)O [Example 99, N-((1R,4R)-4-((5-chloro-4-((2-(2-hydroxypropan-2-yl)-1-isopropyl-1H-imidazol-5-yl)ethynyl)pyrimidin-2-yl)amino)cyclohexyl)methanesulfonamide]
6.69 nM	25.9 nM			CC(C)n1c(C#Cc2nc(Nc3ccc(C(=O)N(C)C)cn3)ncc2Cl)cnc1C(C)(C)O [Example 100, 6-((5-chloro-4-((2-(2-hydroxypropan-2-yl)-1-isopropyl-1H-imidazol-5-yl)ethynyl)pyrimidin-2-yl)amino)-N,N-dimethylnicotinamide]
786 nM	4770 nM			CC(C)n1c(C#Cc2nc(N[C@@H]3CCOC[C@H]3C#N)ncc2Cl)cnc1C(C)(C)O [Example 101, (3R,4R)-4-((5-chloro-4-((2-(2-hydroxypropan-2-yl)-1-isopropyl-1H-imidazol-5-yl)ethynyl)pyrimidin-2-yl)amino)tetrahydro-2H-pyran-3-carbonitrile]
11.9 nM	256 nM			CC(C)n1c(C#Cc2nc(N[C@@H]3CCOC[C@H]3O)ncc2Cl)cnc1CN1CCC[C@H](C#N)C1 [Example 103, (S)-1-((5-((5-chloro-2-(((3 S,4R)-3-hydroxytetrahydro-2H-pyran-4-yl)amino)pyrimidin-4-yl)ethynyl)-1-isopropyl-1H-imidazol-2-yl)methyl)piperidin-3-carbonitrile]
